In ChEMBL document CHEMBL3046635, “Synthesis and Herbicidal Activity of New Pyrazole-4-carboxamide Derivatives” (J Pestic Sci, 2004):
Active and inactive are the calls of the source. Unless noted, no cut-off for these calls is given here.

System: Oryza sativa
Assay: Phytotoxicity against Oryza sativa cv. Koshihikari (rice) at 100 g a.i/ha measured after 14 days
Type: organism-based
Conditions: in vivo, 336 h

Row | SMILES | Activity
1 | CCCN(OCC)C(=O)c1cn(C)nc1OCc1cccc(C(F)(F)F)c1 | Non-toxic

System: Pontederia vaginalis
Assay: Pre-emergence herbicidal activity against Monochoria vaginalis at 500 g a.i/ha measured after 14 days
Type: functional, organism-based
Conditions: not given

Row | SMILES | Activity
2 | CCCN(OCC)C(=O)c1cn(C)nc1OCc1cccc(C(F)(F)F)c1 | Active

System: Schoenoplectiella juncoides
Assay: Post-emergence herbicidal activity against Schoenoplectiella juncoides assessed as bleaching of stem/leaf parts; note: test concentration or dose not given here
Type: functional, organism-based
Conditions: not given

Row | SMILES | Activity
3 | CCCN(OCC)C(=O)c1cn(C)nc1OCc1cccc(C(F)(F)F)c1 | Active

System: Ammannia multiflora
Assay: Pre-emergence herbicidal activity against Ammannia multiflora at 500 g a.i/ha measured after 14 days
Type: functional, organism-based
Conditions: not given

Row | SMILES | Activity
4 | CCCN(OCC)C(=O)c1cn(C)nc1OCc1cccc(C(F)(F)F)c1 | Active

System: Rotala indica
Assay: Pre-emergence herbicidal activity against Rotala indica at 100 g a.i/ha measured after 14 days
Type: functional, organism-based
Conditions: not given

Row | SMILES | Activity
5 | CCCN(OCC)C(=O)c1cn(C)nc1OCc1cccc(C(F)(F)F)c1 | Active

System: Ammannia multiflora
Assay: Pre-emergence herbicidal activity against Ammannia multiflora assessed as bleaching of stem/leaf parts
Type: functional, organism-based
Conditions: not given

Row | SMILES | Activity
6 | CCCN(OCC)C(=O)c1cn(C)nc1OCc1cccc(C(F)(F)F)c1 | Active

System: Pontederia vaginalis
Assay: Post-emergence herbicidal activity against Monochoria vaginalis assessed as bleaching of stem/leaf parts; note: test concentration or dose not given here
Type: functional, organism-based
Conditions: not given

Row | SMILES | Activity
7 | CCCN(OCC)C(=O)c1cn(C)nc1OCc1cccc(C(F)(F)F)c1 | Active

System: Rotala indica
Assay: Pre-emergence herbicidal activity against Rotala indica assessed as bleaching of stem/leaf parts
Type: functional, organism-based
Conditions: not given

Row | SMILES | Activity
8 | CCCN(OCC)C(=O)c1cn(C)nc1OCc1cccc(C(F)(F)F)c1 | Active

System: Lindernia procumbens
Assay: Post-emergence herbicidal activity against Lindernia procumbens assessed as bleaching of stem/leaf parts; note: test concentration or dose not given here
Type: functional, organism-based
Conditions: not given

Row | SMILES | Activity
9 | CCCN(OCC)C(=O)c1cn(C)nc1OCc1cccc(C(F)(F)F)c1 | Active

System: Echinochloa oryzicola
Assay: Post-emergence herbicidal activity against Echinochloa oryzicola assessed as bleaching of stem/leaf parts; note: test concentration or dose not given here
Type: functional, organism-based
Conditions: not given

Row | SMILES | Activity
10 | CCCN(OCC)C(=O)c1cn(C)nc1OCc1cccc(C(F)(F)F)c1 | Active

System: Eleocharis acicularis
Assay: Post-emergence herbicidal activity against Eleocharis acicularis assessed as bleaching of stem/leaf parts; note: test concentration or dose not given here
Type: functional, organism-based
Conditions: not given

Row | SMILES | Activity
11 | CCCN(OCC)C(=O)c1cn(C)nc1OCc1cccc(C(F)(F)F)c1 | Active

System: Rotala indica
Assay: Pre-emergence herbicidal activity against Rotala indica at 500 g a.i/ha measured after 14 days
Type: functional, organism-based
Conditions: not given

Row | SMILES | Activity
12 | CCCN(OCC)C(=O)c1cn(C)nc1OCc1cccc(C(F)(F)F)c1 | Active

System: Ammannia multiflora
Assay: Post-emergence herbicidal activity against Ammannia multiflora assessed as bleaching of stem/leaf parts; note: test concentration or dose not given here
Type: functional, organism-based
Conditions: not given

Row | SMILES | Activity
13 | CCCN(OCC)C(=O)c1cn(C)nc1OCc1cccc(C(F)(F)F)c1 | Active

System: Pontederia vaginalis
Assay: Pre-emergence herbicidal activity against Monochoria vaginalis at 100 g a.i/ha measured after 14 days
Type: functional, organism-based
Conditions: not given

Row | SMILES | Activity
14 | CCCN(OCC)C(=O)c1cn(C)nc1OCc1cccc(C(F)(F)F)c1 | inactive

System: Elatine triandra
Assay: Post-emergence herbicidal activity against Elatine triandra assessed as bleaching of stem/leaf parts; note: test concentration or dose not given here
Type: functional, organism-based
Conditions: not given

Row | SMILES | Activity
15 | CCCN(OCC)C(=O)c1cn(C)nc1OCc1cccc(C(F)(F)F)c1 | Active

System: Cyperus difformis
Assay: Pre-emergence herbicidal activity against Cyperus difformis at 100 g a.i/ha measured after 14 days
Type: functional, organism-based
Conditions: not given

Row | SMILES | Activity
16 | CCCN(OCC)C(=O)c1cn(C)nc1OCc1cccc(C(F)(F)F)c1 | Active

System: Echinochloa oryzicola
Assay: Pre-emergence herbicidal activity against Echinochloa oryzicola at 100 g a.i/ha measured after 14 days
Type: functional, organism-based
Conditions: not given

Row | SMILES | Activity
17 | CCCN(OCC)C(=O)c1cn(C)nc1OCc1cccc(C(F)(F)F)c1 | Active

System: Schoenoplectiella juncoides
Assay: Pre-emergence herbicidal activity against Schoenoplectiella juncoides at 100 g a.i/ha measured after 14 days
Type: functional, organism-based
Conditions: not given

Row | SMILES | Activity
18 | CCCN(OCC)C(=O)c1cn(C)nc1OCc1cccc(C(F)(F)F)c1 | inactive

System: Lindernia procumbens
Assay: Pre-emergence herbicidal activity against Lindernia procumbens at 500 g a.i/ha measured after 14 days
Type: functional, organism-based
Conditions: not given

Row | SMILES | Activity
19 | CCCN(OCC)C(=O)c1cn(C)nc1OCc1cccc(C(F)(F)F)c1 | Active

System: Cyperus difformis
Assay: Pre-emergence herbicidal activity against Cyperus difformis at 500 g a.i/ha measured after 14 days
Type: functional, organism-based
Conditions: not given

Row | SMILES | Activity
20 | CCCN(OCC)C(=O)c1cn(C)nc1OCc1cccc(C(F)(F)F)c1 | Active

System: Lindernia procumbens
Assay: Pre-emergence herbicidal activity against Lindernia procumbens at 100 g a.i/ha measured after 14 days
Type: functional, organism-based
Conditions: not given

Row | SMILES | Activity
21 | CCCN(OCC)C(=O)c1cn(C)nc1OCc1cccc(C(F)(F)F)c1 | Active

System: Eleocharis acicularis
Assay: Pre-emergence herbicidal activity against Eleocharis acicularis at 100 g a.i/ha measured after 14 days
Type: functional, organism-based
Conditions: not given

Row | SMILES | Activity
22 | CCCN(OCC)C(=O)c1cn(C)nc1OCc1cccc(C(F)(F)F)c1 | inactive

System: Eleocharis acicularis
Assay: Pre-emergence herbicidal activity against Eleocharis acicularis assessed as bleaching of stem/leaf parts
Type: functional, organism-based
Conditions: not given

Row | SMILES | Activity
23 | CCCN(OCC)C(=O)c1cn(C)nc1OCc1cccc(C(F)(F)F)c1 | Active

System: Elatine triandra
Assay: Pre-emergence herbicidal activity against Elatine triandra assessed as bleaching of stem/leaf parts
Type: functional, organism-based
Conditions: not given

Row | SMILES | Activity
24 | CCCN(OCC)C(=O)c1cn(C)nc1OCc1cccc(C(F)(F)F)c1 | Active

System: Oryza sativa
Assay: Phytotoxicity against Oryza sativa cv. Koshihikari (rice) at 500 g a.i/ha measured after 14 days
Type: organism-based
Conditions: in vivo, 336 h

Row | SMILES | Activity
25 | CCCN(OCC)C(=O)c1cn(C)nc1OCc1cccc(C(F)(F)F)c1 | Non-toxic

System: Ammannia multiflora
Assay: Pre-emergence herbicidal activity against Ammannia multiflora at 100 g a.i/ha measured after 14 days
Type: functional, organism-based
Conditions: not given

Row | SMILES | Activity
26 | CCCN(OCC)C(=O)c1cn(C)nc1OCc1cccc(C(F)(F)F)c1 | Active

System: Rotala indica
Assay: Post-emergence herbicidal activity against Rotala indica assessed as bleaching of stem/leaf parts; note: test concentration or dose not given here
Type: functional, organism-based
Conditions: not given

Row | SMILES | Activity
27 | CCCN(OCC)C(=O)c1cn(C)nc1OCc1cccc(C(F)(F)F)c1 | Active

System: Schoenoplectiella juncoides
Assay: Pre-emergence herbicidal activity against Schoenoplectiella juncoides at 500 g a.i/ha measured after 14 days
Type: functional, organism-based
Conditions: not given

Row | SMILES | Activity
28 | CCCN(OCC)C(=O)c1cn(C)nc1OCc1cccc(C(F)(F)F)c1 | inactive

System: Echinochloa oryzicola
Assay: Pre-emergence herbicidal activity against Echinochloa oryzicola assessed as bleaching of stem/leaf parts
Type: functional, organism-based
Conditions: not given

Row | SMILES | Activity
29 | CCCN(OCC)C(=O)c1cn(C)nc1OCc1cccc(C(F)(F)F)c1 | Active

System: Echinochloa oryzicola
Assay: Pre-emergence herbicidal activity against Echinochloa oryzicola at 500 g a.i/ha measured after 14 days
Type: functional, organism-based
Conditions: not given

Row | SMILES | Activity
30 | CCCN(OCC)C(=O)c1cn(C)nc1OCc1cccc(C(F)(F)F)c1 | Active

System: Schoenoplectiella juncoides
Assay: Pre-emergence herbicidal activity against Schoenoplectiella juncoides assessed as bleaching of stem/leaf parts
Type: functional, organism-based
Conditions: not given

Row | SMILES | Activity
31 | CCCN(OCC)C(=O)c1cn(C)nc1OCc1cccc(C(F)(F)F)c1 | Active

System: Cyperus difformis
Assay: Pre-emergence herbicidal activity against Cyperus difformis assessed as bleaching of stem/leaf parts
Type: functional, organism-based
Conditions: not given

Row | SMILES | Activity
32 | CCCN(OCC)C(=O)c1cn(C)nc1OCc1cccc(C(F)(F)F)c1 | Active

System: Lindernia procumbens
Assay: Pre-emergence herbicidal activity against Lindernia procumbens assessed as bleaching of stem/leaf parts
Type: functional, organism-based
Conditions: not given

Row | SMILES | Activity
33 | CCCN(OCC)C(=O)c1cn(C)nc1OCc1cccc(C(F)(F)F)c1 | Active

System: Elatine triandra
Assay: Pre-emergence herbicidal activity against Elatine triandra at 500 g a.i/ha measured after 14 days
Type: functional, organism-based
Conditions: not given

Row | SMILES | Activity
34 | CCCN(OCC)C(=O)c1cn(C)nc1OCc1cccc(C(F)(F)F)c1 | Active

System: Elatine triandra
Assay: Pre-emergence herbicidal activity against Elatine triandra at 100 g a.i/ha measured after 14 days
Type: functional, organism-based
Conditions: not given

Row | SMILES | Activity
35 | CCCN(OCC)C(=O)c1cn(C)nc1OCc1cccc(C(F)(F)F)c1 | Active

System: Eleocharis acicularis
Assay: Pre-emergence herbicidal activity against Eleocharis acicularis at 500 g a.i/ha measured after 14 days
Type: functional, organism-based
Conditions: not given

Row | SMILES | Activity
36 | CCCN(OCC)C(=O)c1cn(C)nc1OCc1cccc(C(F)(F)F)c1 | Active

System: Cyperus difformis
Assay: Post-emergence herbicidal activity against Cyperus difformis assessed as bleaching of stem/leaf parts; note: test concentration or dose not given here
Type: functional, organism-based
Conditions: not given

Row | SMILES | Activity
37 | CCCN(OCC)C(=O)c1cn(C)nc1OCc1cccc(C(F)(F)F)c1 | Active

System: Pontederia vaginalis
Assay: Pre-emergence herbicidal activity against Monochoria vaginalis assessed as bleaching of stem/leaf parts
Type: functional, organism-based
Conditions: not given

Row | SMILES | Activity
38 | CCCN(OCC)C(=O)c1cn(C)nc1OCc1cccc(C(F)(F)F)c1 | Active
